According to ChEMBL document CHEMBL2007661, “Compounds: GSK PKIS; Assays: UNC Frye lab” (2012):
Several values for one entry are separate records, joined by “and”; a condition that tells them apart may be missing. Equal values may be shown once.

Columns and labels:
[1] = molecular target: T1, Tyrosine-protein kinase Mer (Homo sapiens) (UniProt Q12866); settings: at 10 µM
T1 sequence (whole entry): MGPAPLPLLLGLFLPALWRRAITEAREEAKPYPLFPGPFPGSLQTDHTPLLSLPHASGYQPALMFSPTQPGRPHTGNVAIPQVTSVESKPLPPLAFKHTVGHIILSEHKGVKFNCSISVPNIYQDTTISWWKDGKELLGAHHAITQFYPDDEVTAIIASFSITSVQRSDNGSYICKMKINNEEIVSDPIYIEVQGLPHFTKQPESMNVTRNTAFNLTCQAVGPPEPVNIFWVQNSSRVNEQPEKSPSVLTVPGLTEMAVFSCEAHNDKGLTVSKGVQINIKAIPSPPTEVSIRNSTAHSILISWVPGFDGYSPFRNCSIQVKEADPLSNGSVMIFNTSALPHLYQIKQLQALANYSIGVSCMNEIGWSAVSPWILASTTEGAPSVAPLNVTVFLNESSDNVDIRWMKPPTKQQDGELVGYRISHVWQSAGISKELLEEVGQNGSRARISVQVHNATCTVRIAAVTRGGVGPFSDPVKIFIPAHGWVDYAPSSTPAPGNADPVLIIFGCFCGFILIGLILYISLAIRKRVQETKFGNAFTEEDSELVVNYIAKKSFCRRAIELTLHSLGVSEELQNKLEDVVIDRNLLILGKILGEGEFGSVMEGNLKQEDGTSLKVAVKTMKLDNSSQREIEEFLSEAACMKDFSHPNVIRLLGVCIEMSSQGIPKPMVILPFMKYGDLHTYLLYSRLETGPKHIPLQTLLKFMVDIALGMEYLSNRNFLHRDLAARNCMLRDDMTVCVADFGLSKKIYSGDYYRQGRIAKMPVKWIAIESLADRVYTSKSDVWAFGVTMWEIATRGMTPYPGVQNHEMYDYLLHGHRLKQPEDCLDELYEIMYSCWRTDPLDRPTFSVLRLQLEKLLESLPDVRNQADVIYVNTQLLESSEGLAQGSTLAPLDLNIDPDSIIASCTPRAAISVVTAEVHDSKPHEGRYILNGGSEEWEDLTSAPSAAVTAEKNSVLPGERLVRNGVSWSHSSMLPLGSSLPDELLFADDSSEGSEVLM

[2] = molecular target: T2, Serine/threonine-protein kinase TBK1 (Homo sapiens) (UniProt Q9UHD2); settings: at 1 µM
T2 sequence (whole entry): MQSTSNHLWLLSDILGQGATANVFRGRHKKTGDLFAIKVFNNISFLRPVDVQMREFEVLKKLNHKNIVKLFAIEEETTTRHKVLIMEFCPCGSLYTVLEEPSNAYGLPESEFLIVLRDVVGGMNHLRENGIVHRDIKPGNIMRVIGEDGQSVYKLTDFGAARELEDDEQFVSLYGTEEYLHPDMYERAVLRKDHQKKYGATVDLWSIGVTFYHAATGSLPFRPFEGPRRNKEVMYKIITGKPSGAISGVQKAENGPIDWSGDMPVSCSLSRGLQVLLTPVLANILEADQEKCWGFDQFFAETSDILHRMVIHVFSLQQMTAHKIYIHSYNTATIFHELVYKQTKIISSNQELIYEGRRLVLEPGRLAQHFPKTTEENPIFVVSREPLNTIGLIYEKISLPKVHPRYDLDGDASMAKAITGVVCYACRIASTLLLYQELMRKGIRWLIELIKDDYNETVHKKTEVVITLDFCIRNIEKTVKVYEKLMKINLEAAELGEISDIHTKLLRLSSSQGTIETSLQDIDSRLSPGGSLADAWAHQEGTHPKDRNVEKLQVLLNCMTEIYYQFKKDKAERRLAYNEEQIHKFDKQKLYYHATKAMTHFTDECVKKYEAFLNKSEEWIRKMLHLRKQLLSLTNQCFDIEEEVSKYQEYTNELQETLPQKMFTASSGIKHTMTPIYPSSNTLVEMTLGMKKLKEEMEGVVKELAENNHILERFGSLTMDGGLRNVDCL

[3] = molecular target: T3, Inhibitor of nuclear factor kappa-B kinase subunit beta (Homo sapiens) (UniProt O14920); settings: at 1 µM
T3 sequence (whole entry): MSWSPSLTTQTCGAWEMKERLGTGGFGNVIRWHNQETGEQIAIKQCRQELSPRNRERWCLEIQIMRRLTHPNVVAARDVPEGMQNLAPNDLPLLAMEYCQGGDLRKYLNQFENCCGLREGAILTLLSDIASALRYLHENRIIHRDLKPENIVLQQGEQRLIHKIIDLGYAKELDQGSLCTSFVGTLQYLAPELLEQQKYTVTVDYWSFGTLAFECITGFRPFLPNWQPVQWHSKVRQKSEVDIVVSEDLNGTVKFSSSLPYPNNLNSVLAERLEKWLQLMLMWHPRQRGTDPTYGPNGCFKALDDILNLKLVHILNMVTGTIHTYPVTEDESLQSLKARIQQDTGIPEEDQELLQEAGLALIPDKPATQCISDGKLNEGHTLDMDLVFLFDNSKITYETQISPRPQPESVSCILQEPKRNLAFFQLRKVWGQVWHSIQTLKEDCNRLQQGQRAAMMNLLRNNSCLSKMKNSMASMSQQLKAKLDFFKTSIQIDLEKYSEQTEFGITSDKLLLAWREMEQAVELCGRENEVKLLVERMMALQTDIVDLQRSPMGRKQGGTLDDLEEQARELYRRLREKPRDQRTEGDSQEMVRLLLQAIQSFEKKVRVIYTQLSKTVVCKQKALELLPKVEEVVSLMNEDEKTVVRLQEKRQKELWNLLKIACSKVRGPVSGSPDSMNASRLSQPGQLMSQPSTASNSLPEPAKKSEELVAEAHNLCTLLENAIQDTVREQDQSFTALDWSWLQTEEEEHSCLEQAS

Compound	inhibition [1] [%]	inhibition [2]	inhibition [3]
CC1=C(C(=O)Nc2ccc3[nH]ncc3c2)C(c2ccc(F)cc2)N=C(c2ccc(C(F)(F)F)nc2)N1 (centres undefined)	-4	1% and -1%	-2% and -3%
COc1cccc(-n2ncc3c(N/N=C/c4ccc(C)cc4)ncnc32)c1	25	1% and 2%	0% and -2%
COc1cccc(-n2ncc3c(N/N=C/c4ccc(S(C)(=O)=O)cc4)ncnc32)c1	5	20% and 30%	-1%
